Measurements reported in ChEMBL document CHEMBL1155993, “5-(2-Pyrimidinyl)-imidazo[1,2-a]pyridines are antibacterial agents targeting the ATPase domains of DNA gyrase and topoisomerase IV” (Bioorg Med Chem Lett, 2009).
≈ marks a conversion by molar mass, not a printed value.

How the values were obtained:
[1] = Bioavailability in rat; type: ADME, organism-based; details: in vivo
ParE = target: T1, ParE (Streptococcus pneumoniae, UniProt Q7X1P7); assay: Inhibition of Streptococcus pneumoniae SP-3 parE after 30 mins
T1 sequence (Q7X1P7 whole entry): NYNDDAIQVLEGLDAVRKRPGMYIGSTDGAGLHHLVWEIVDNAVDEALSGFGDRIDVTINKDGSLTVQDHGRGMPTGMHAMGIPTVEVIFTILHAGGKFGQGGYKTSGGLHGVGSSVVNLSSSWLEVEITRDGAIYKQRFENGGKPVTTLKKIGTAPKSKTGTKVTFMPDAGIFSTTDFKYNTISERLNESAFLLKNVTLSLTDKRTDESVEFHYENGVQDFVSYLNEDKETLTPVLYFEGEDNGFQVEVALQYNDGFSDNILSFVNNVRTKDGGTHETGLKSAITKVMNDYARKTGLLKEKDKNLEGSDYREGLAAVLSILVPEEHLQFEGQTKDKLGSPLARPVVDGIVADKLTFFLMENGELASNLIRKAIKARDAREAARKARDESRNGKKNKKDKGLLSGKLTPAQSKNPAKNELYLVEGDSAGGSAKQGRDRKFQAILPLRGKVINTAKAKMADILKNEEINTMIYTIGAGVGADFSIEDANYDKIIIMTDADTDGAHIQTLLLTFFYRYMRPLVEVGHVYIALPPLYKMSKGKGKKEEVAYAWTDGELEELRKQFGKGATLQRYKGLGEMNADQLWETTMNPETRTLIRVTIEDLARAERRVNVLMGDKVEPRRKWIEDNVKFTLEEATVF

[2] = Volume of distribution in rat; type: ADME, organism-based; details: in vivo
Streptococcus pneumoniae [3] = assay: Antibacterial activity against fluoroquinolone resistant Streptococcus pneumoniae SP-3765 by NCCLS method; type: functional
[4] = Clearance in rat; type: ADME, organism-based; details: in vivo
Staphylococcus aureus [5] = assay: Antibacterial activity against methicillin resistant Staphylococcus aureus SA-1417 by NCCLS method; type: functional
Streptococcus pyogenes [6] = assay: Antibacterial activity against Streptococcus pyogenes SP1-1 by NCCLS method; type: functional
Streptococcus pneumoniae [7] = assay: Antibacterial activity against Streptococcus pneumoniae SP-3 by NCCLS method; type: functional
Streptococcus pneumoniae [8] = assay: Antibacterial activity against Streptococcus pneumoniae SV-1 infected in po dosed mouse lung; type: functional; details: SV-1, po, read-out: PD50
Streptococcus pyogenes [9] = assay: Antibacterial activity against Streptococcus pyogenes SP1-1 infected in po dosed mouse sepsis model; type: functional; details: SP1-1, po, read-out: PD50
DNA gyrase subunit B = DNA gyrase subunit B (Streptococcus pneumoniae serotype 4 (strain ATCC BAA-334 / TIGR4), UniProt P0A4L9); assay: Inhibition of Streptococcus pneumoniae SP-3 gyrB by enzyme coupled phosphate assay
Staphylococcus aureus [10] = assay: Antibacterial activity against Staphylococcus aureus UC76 by NCCLS method; type: functional, organism-based; details: read-out: MIC

DNA gyrase subunit B, sequence (P0A4L9 whole entry): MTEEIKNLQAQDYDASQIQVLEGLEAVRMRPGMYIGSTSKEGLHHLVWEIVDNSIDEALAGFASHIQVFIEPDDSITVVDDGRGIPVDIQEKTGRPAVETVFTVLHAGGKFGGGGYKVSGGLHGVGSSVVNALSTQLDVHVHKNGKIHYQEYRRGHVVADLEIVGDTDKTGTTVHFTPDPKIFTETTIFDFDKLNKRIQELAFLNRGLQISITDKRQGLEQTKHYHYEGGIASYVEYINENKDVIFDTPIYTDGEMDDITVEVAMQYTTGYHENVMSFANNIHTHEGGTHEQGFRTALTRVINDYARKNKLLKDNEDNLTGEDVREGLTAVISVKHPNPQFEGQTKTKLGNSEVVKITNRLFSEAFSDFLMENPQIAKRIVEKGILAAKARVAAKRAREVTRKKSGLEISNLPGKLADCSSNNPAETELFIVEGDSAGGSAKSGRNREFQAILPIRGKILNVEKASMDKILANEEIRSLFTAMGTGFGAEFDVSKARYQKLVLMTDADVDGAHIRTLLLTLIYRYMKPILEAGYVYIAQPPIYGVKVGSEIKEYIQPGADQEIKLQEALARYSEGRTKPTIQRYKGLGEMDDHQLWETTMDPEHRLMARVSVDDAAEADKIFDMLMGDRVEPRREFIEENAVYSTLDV

Structure (SMILES)	bioavailability [1] [%]	IC50 (ParE) [nM]	Vd [2] [L/kg]	MIC (Streptococcus pneumoniae [3]) [µg/mL]	clearance [4] [mL/min/kg]	MIC (Staphylococcus aureus [5]) [µg/mL]	MIC (Streptococcus pyogenes [6]) [µg/mL]	MIC (Streptococcus pneumoniae [7]) [µg/mL]	ED50 (Streptococcus pneumoniae [8]) [mg/kg]	ED50 (Streptococcus pyogenes [9]) [mg/kg]	IC50 (DNA gyrase subunit B) [nM]	MIC (Staphylococcus aureus [10]) [µg/mL]
CCNC(=O)Nc1cn2c(-c3ncccn3)cc(-c3cccnc3)cc2n1	56	447	1.6	0.25 (≈ 0.696 µM)	33	0.5 (≈ 1.39 µM)	0.25 (≈ 0.696 µM)	0.125 (≈ 0.348 µM)	35	24	48	0.5 (≈ 1.39 µM)
CCNC(=O)Nc1cn2c(-c3ncc(C)cn3)cc(-c3cncnc3)cc2n1		258		0.06 (≈ 0.16 µM)		1 (≈ 2.67 µM)	0.5 (≈ 1.34 µM)	0.25 (≈ 0.668 µM)			36	0.25 (≈ 0.668 µM)
CNC(=O)Nc1cn2c(-c3ncc(C)cn3)cc(-c3cccnc3)cc2n1		629		0.25 (≈ 0.696 µM)			2 (≈ 5.56 µM)	1 (≈ 2.78 µM)			92	4 (≈ 11.1 µM)
CCNC(=O)Nc1cn2c(-c3nc(C)cc(C)n3)cc(-c3cccnc3)cc2n1		541		0.5 (≈ 1.29 µM)		4 (≈ 10.3 µM)	1 (≈ 2.58 µM)	0.5 (≈ 1.29 µM)			198	1 (≈ 2.58 µM)
CCNC(=O)Nc1cn2c(-c3ncc(S(C)(=O)=O)cn3)cc(-c3cccnc3)cc2n1		1830		16 (≈ 36.6 µM)			64 (≈ 146 µM)	8 (≈ 18.3 µM)			433	64 (≈ 146 µM)
CCNC(=O)Nc1cn2c(-c3ncccn3)cc(-c3cnc(N(C)C)nc3)cc2n1		611		0.125 (≈ 0.31 µM)			0.25 (≈ 0.62 µM)	0.125 (≈ 0.31 µM)			137	1 (≈ 2.48 µM)
CCCCNC(=O)Nc1cn2c(-c3ncc(C)cn3)cc(-c3cccnc3)cc2n1		4750		0.125 (≈ 0.311 µM)			2 (≈ 4.98 µM)	2 (≈ 4.98 µM)			261	8 (≈ 19.9 µM)
CCNC(=O)Nc1cn2c(-c3ncc(C)cn3)cc(-c3cnc(N4CCCC4)nc3)cc2n1		366		0.06 (≈ 0.135 µM)			0.25 (≈ 0.564 µM)	0.125 (≈ 0.282 µM)			244	0.5 (≈ 1.13 µM)
CCNC(=O)Nc1cn2c(-c3ncc(C)cn3)cc(-c3ccn(CCF)c(=O)c3)cc2n1		10000		0.5 (≈ 1.15 µM)		1 (≈ 2.3 µM)	0.5 (≈ 1.15 µM)	0.125 (≈ 0.287 µM)			376	0.5 (≈ 1.15 µM)
CCNC(=O)Nc1cn2c(-c3ncccn3)cc(-c3ccc(C)nc3)cc2n1		119		0.06 (≈ 0.161 µM)			0.25 (≈ 0.669 µM)	0.06 (≈ 0.161 µM)			44	0.25 (≈ 0.669 µM)
CCNC(=O)Nc1cn2c(-c3ncc(C)cn3)cc(-c3cnc(OC)nc3)cc2n1		3640		16 (≈ 39.6 µM)		> 64	32 (≈ 79.1 µM)	16 (≈ 39.6 µM)			132	16 (≈ 39.6 µM)
CCNC(=O)Nc1cn2c(-c3ncc(C)cn3)cc(-c3cccnc3)cc2n1	99	250	1.3	0.125 (≈ 0.335 µM)	18	0.5 (≈ 1.34 µM)	0.5 (≈ 1.34 µM)	0.125 (≈ 0.335 µM)	21	24	53	0.5 (≈ 1.34 µM)
CCCn1ccc(-c2cc(-c3ncc(C)cn3)n3cc(NC(=O)NCC)nc3c2)cc1=O		1020		0.06 (≈ 0.139 µM)		0.25 (≈ 0.579 µM)	0.25 (≈ 0.579 µM)	0.06 (≈ 0.139 µM)			97	0.125 (≈ 0.29 µM)
CCNC(=O)Nc1cn2c(-c3nc(C)cc(C(F)(F)F)n3)cc(-c3cccnc3)cc2n1		546		0.125 (≈ 0.283 µM)		1 (≈ 2.27 µM)	0.5 (≈ 1.13 µM)	0.25 (≈ 0.566 µM)			216	0.5 (≈ 1.13 µM)
CCNC(=O)Nc1cn2c(-c3ncc(C)cn3)cc(-c3cnc(N(C)C)nc3)cc2n1		1380		0.125 (≈ 0.299 µM)		4 (≈ 9.58 µM)	0.5 (≈ 1.2 µM)	0.25 (≈ 0.599 µM)			524	1 (≈ 2.4 µM)
CCNC(=O)Nc1cn2c(-c3ncc(C(F)(F)F)cn3)cc(-c3cccnc3)cc2n1		367		0.25 (≈ 0.585 µM)		1 (≈ 2.34 µM)	1 (≈ 2.34 µM)	0.5 (≈ 1.17 µM)			163	1 (≈ 2.34 µM)
CCNC(=O)Nc1cn2c(-c3nccc(C)n3)cc(-c3cnc(N(C)C)nc3)cc2n1		424		0.125 (≈ 0.299 µM)			0.25 (≈ 0.599 µM)	0.25 (≈ 0.599 µM)			113	0.5 (≈ 1.2 µM)
